Measurements published in patent US10155768B2, “Fused pyrimidine compound or salt thereof” (TAIHO PHARMACEUTICAL CO., LTD., priority 2016, dated 2018).

Target: recombinant human RET protein (Homo sapiens (Human), UniProt P07949)
Test: Measurement of inhibitory activity against RET (in vitro)
Type: biochemical
Conditions: ATP 10 μM

Chain of recombinant human RET protein (P07949 29-1114): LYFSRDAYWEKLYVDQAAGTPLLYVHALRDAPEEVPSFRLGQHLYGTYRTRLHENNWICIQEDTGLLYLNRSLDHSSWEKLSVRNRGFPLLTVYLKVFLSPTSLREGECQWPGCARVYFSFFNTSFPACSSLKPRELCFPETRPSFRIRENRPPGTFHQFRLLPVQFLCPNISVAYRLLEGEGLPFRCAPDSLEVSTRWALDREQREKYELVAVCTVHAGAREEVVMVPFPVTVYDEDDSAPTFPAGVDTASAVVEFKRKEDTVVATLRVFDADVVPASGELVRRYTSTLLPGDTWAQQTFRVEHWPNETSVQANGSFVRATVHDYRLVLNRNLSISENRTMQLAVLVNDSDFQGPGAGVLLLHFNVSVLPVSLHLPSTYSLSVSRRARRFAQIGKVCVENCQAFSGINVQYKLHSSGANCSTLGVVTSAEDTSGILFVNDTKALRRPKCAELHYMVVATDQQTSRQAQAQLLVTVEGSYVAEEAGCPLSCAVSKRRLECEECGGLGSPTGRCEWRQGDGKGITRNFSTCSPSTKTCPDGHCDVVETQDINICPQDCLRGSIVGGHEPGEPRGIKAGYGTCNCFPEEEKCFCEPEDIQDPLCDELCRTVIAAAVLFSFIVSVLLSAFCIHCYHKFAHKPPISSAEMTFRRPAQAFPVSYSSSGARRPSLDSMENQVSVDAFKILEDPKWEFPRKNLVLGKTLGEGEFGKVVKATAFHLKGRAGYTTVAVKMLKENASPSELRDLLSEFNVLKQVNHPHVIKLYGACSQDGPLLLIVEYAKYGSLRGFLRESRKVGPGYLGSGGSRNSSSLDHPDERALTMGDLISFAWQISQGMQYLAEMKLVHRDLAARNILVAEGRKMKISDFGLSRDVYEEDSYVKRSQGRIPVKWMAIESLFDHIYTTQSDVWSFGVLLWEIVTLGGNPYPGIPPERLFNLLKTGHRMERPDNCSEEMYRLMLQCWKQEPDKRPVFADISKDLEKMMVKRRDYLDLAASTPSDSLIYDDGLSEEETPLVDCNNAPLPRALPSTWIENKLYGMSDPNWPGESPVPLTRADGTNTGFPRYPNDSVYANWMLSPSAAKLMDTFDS

Structure (SMILES)	IC50 [nM]
COCc1ccc(NC(=O)c2nn(-c3ccccc3)c3ncnc(N)c23)cc1 [Comound 5 of Comparative Examples, 4-amino-N-(4-(methoxymethyl)phenyl)-1-phenyl-1H-pyrazolo[3,4-d]pyrimidine-3-carboxamide]	> 5000

System: TT cells (a human thyroid cancer cell line with RET activating mutation (C634W))
Test: Cell growth inhibitory effect (1), TT cells
Type: cell-based
Conditions: 168 h, read-out: TT Cell GI50 (nM)
Protocol: An in vitro cytotoxicity test was performed on TT cells (a human thyroid cancer cell line with RET activating mutation (C634W)).
(§1) After shaking, each culture was allowed to stand at room temperature for 15 minutes, and the chemiluminescence was measured with a luminometer to use it as an index of the number of viable cells.
C: The absorbance of the well to which a test compound was not added. Day 1: The day on which a test compound was added. Day 8: The day on which evaluation was performed.

Structure (SMILES)	GI50 [nM]
COCc1ccc(NC(=O)c2c(C#CCN3CCOCC3)n(C3(C)CC3)c3ncnc(N)c23)cc1 [Example 85, 4-amino-N-[4-(methoxymethyl)phenyl]-7-(1-methylcyclopropyl)-6-(3-morpholinoprop-1-yn-1-yl)-7H-pyrrolo[2,3-d]pyrimidine-5-carboxamide]	10

System: LC-2/ad cells (a human lung adenocarcinoma cell line with CCDC6-RET fusion gene)
Test: Cell growth inhibitory effect (2), LC-2/ad cells
Type: cell-based
Conditions: 168 h, read-out: LC-2/ad Cell GI50
Protocol: An in vitro cytotoxicity test was performed on LC-2/ad cells (a human lung adenocarcinoma cell line with CCDC6-RET fusion gene).
as §1

Structure (SMILES)	GI50 [nM]
COCc1ccc(NC(=O)c2c(C#CCN3CCOCC3)n(C3(C)CC3)c3ncnc(N)c23)cc1 [Example 85, 4-amino-N-[4-(methoxymethyl)phenyl]-7-(1-methylcyclopropyl)-6-(3-morpholinoprop-1-yn-1-yl)-7H-pyrrolo[2,3-d]pyrimidine-5-carboxamide]	17.7

System: TT cells (human thyroid cancer cell line with RET activating mutation)
Test: In vivo antitumor effect, mice subcutaneously implanted with TT cells
Set-up: species or system BALB/cA Jcl-nu/nu male mice
Conditions: 100 mg/kg/day oral, 14 days, day 15
Protocol: Human thyroid cancer cell lines (TT) were subcutaneously implanted into the right frank of 6- to 7-week-old BALB/cA Jcl-nu/nu male mice. After about 2 to 3 weeks from the cell implantation, the length (nm) and the width (mm) of tumors found in mouse bodies were measured. […] The day on which the mice were divided into groups was determined to be the “grouping day” (day 0 or 1).
A control group was administered a solvent (0.5% HPMC/0.1N HCl).
To determine the index of the antitumor effect, TV of each drug-administrated group was measured on day 15, and the tumor volume on day 15 relative to the tumor volume on the grouping day (day 0 or 1) (relative tumor volume: RTV) and T/C (%) were calculated from the following equations, and the antitumor effect was evaluated. […] TV(mm^3)=(length×width^2)/2 RTV=(TV on day 15)/(TV on day 0 or day 1) T/C(%)=(the mean RTV of a test compound treatment group)/(the mean RTV of the control group)×100

Structure (SMILES)	T/C (%)	TV (mm^3) Day 15 Mean ± SE [mm^3]
COCc1ccc(NC(=O)c2c(C#CCN3CCOCC3)n(C3(C)CC3)c3ncnc(N)c23)cc1 [Example 85, 4-amino-N-[4-(methoxymethyl)phenyl]-7-(1-methylcyclopropyl)-6-(3-morpholinoprop-1-yn-1-yl)-7H-pyrrolo[2,3-d]pyrimidine-5-carboxamide]	23	139.42 ± 10.17

Same assay, conditions: 100 mg/kg/day oral, 14 days, day 15 relative to day 0

Structure (SMILES)	RTV Day 15 Mean ± SE
COCc1ccc(NC(=O)c2c(C#CCN3CCOCC3)n(C3(C)CC3)c3ncnc(N)c23)cc1 [Example 85, 4-amino-N-[4-(methoxymethyl)phenyl]-7-(1-methylcyclopropyl)-6-(3-morpholinoprop-1-yn-1-yl)-7H-pyrrolo[2,3-d]pyrimidine-5-carboxamide]	0.87 ± 0.13

System: not given
Test: not given
Conditions: mouse, microsomes, 0.5 h

Structure (SMILES)	Remaining (%)
C#Cc1ccc(NC(=O)c2cn(C3(C)CC3)c3ncnc(N)c23)cc1 [Example 108, 4-amino-N-(4-ethynylphenyl)-7-(1-methylcyclopropyl)-7H-pyrrolo[2,3-d]pyrimidine-5-carboxamide]	60
C/C=C/c1ccc(NC(=O)c2cn(C3(C)CC3)c3ncnc(N)c23)cc1 [Example 107, (E)-4-amino-7-(1-methylcyclopropyl)-N-(4-(prop-1-en-1-yl)phenyl)-7H-pyrrolo[2,3-d]pyrimidine-5-carboxamide]	63
COCc1ccc(NC(=O)c2c(C#CCN3CCOCC3)n(C3(C)CC3)c3ncnc(N)c23)cc1 [Example 85, 4-amino-N-[4-(methoxymethyl)phenyl]-7-(1-methylcyclopropyl)-6-(3-morpholinoprop-1-yn-1-yl)-7H-pyrrolo[2,3-d]pyrimidine-5-carboxamide]	79

Same assay, conditions: mouse, microsomes, 0.5 h, 1 μM

Structure (SMILES)	Remaining (%)
C/C=C/c1ccc(NC(=O)c2c(OCC)n(C3(C)CC3)c3ncnc(N)c23)cc1 [Example 117, (E)-4-amino-6-ethoxy-7-(1-methylcyclopropyl)-N-(4-(prop-1-en-1-yl)phenyl)-7H-pyrrolo[2,3-d]pyrimidine-5-carboxamide]	53

System: not listed separately
Test: Evaluation of stability in liver microsome
Conditions: mouse liver microsome 0.25 mg/mL, 1 μM test compound, 37° C. for 30 minutes
Protocol: Solutions of the test compounds in DMSO/acetonitrile (the final concentration of each test compound was 1 μM, the final concentration of DMSO was 0.01%, and the final concentration of acetonitrile was 1%) were individually added to a liver microsome mixture solution (mouse liver microsome with a final concentration of 0.25 mg/mL, a potassium phosphate buffer with a final concentration of 100 mM, and magnesium chloride with a final concentration of 3 mM), and each mixture was pre-incubated at 37° C. for 5 minutes. […] After incubation at 37° C. for 30 minutes, a double amount of ethanol was added thereto to terminate the reaction, thereby obtaining post-reaction samples. A double amount of ethanol was added to each of the remaining mixture solutions, and a NADPH-generating system was further added thereto, thereby obtaining pre-reaction samples. The pre-reaction samples and post-reaction samples were centrifuged at 2000×g, and their supernatant was filtered through a glass filter. Each filtrate was then introduced into LC-MS/MS, and MS/MS peaks of the test compounds were detected. From the ratio of the post-reaction MS/MS peak to the pre-reaction MS/MS peak of the test compounds, the percentage of the remaining test compounds (remaining %) was calculated.

Structure (SMILES)	Remaining (%)
COCc1ccc(NC(=O)c2c(-c3ccccc3)n(C3(C)CC3)c3ncnc(N)c23)cc1 [Example 154, 4-amino-N-(4-(methoxymethyl)phenyl)-7-(1-methylcyclopropyl)-6-phenyl-7H-pyrrolo[2,3-d]pyrimidine-5-carboxamide]	50
COCc1ccc(NC(=O)c2c(C#Cc3ccccn3)n(C3(C)CC3)c3ncnc(N)c23)cc1 [Example 172, 4-amino-N-[4-(methoxymethyl)phenyl]-7-(1-methylcyclopropyl)-6-(pyridin-2-ylethynyl)-7H-pyrrolo[2,3-d]pyrimidine-5-carboxamide]	61
[2H]C([2H])([2H])OCc1ccc(NC(=O)c2cn(C(C)(C)C)c3ncnc(N)c23)cc1 [Example 35, 4-amino-7-(tert-butyl)-N-(4-((methoxy-d3)-methyl)phenyl)-7H-pyrrolo[2,3-d]pyrimidine-5-carboxamide]	58
COCc1ccc(NC(=O)c2c(C3=CCOCC3)n(C3(C)CC3)c3ncnc(N)c23)cc1 [Example 203, 4-amino-6-(3,6-dihydro-2H-pyran-4-yl)-N-(4-(methoxymethyl)phenyl)-7-(1-methylcyclopropyl)-7H-pyrrolo[2,3-d]pyrimidine-5-carboxamide]	68
COCc1ccc(NC(=O)c2c(C#Cc3cncn3C)n(C3(C)CC3)c3ncnc(N)c23)cc1 [Example 93, 4-amino-N-(4-(methoxymethyl)phenyl)-6-((1-methyl-1H-imidazol-5-yl)ethynyl)-7-(1-methylcyclopropyl)-7H-pyrrolo[2,3-d]pyrimidine-5-carboxamide]	53
COCc1ccc(NC(=O)c2c(C#Cc3ccccc3)n(C3(C)CC3)c3ncnc(N)c23)cc1 [Example 162, 4-amino-N-(4-(methoxymethyl)phenyl)-7-(1-methylcyclopropyl)-6-(phenylethynyl)-7H-pyrrolo[2,3-d]pyrimidine-5-carboxamide]	76
COCc1ccc(NC(=O)c2c(C#Cc3cncc(F)c3)n(C3(C)CC3)c3ncnc(N)c23)cc1 [Example 175, 4-amino-6-((5-fluoropyridin-3-yl)ethynyl)-N-(4-(methoxymethyl)phenyl)-7-(1-methylcyclopropyl)-7H-pyrrolo[2,3-d]pyrimidine-5-carboxamide]	66
COCc1ccc(NC(=O)c2c(C#CCN3CC[S+]([O-])CC3)n(C3(C)CC3)c3ncnc(N)c23)cc1 [Example 178, 4-amino-N-(4-(methoxymethyl)phenyl)-7-(1-methylcyclopropyl)-6-(3-(1-oxidethiomorpholino)prop-1-yn-1-yl)-7H-pyrrolo[2,3-d]pyrimidine-5-carboxamide]	88
COCc1ccc(NC(=O)c2c(OCC3CCCO3)n(C3(C)CC3)c3ncnc(N)c23)cc1 (stereo not shown) [Example 135, 4-amino-N-(4-(methoxymethyl)phenyl)-7-(1-methylcyclopropyl)-6-((tetrahydrofuran-2-yl)methoxy)-7H-pyrrolo[2,3-d]pyrimidine-5-carboxamide]	67
COCc1ccc(NC(=O)c2c(C#CCC3(O)COC3)n(C3(C)CC3)c3ncnc(N)c23)cc1 [Example 125, 4-amino-6-(3-(3-hydroxyoxetan-3-yl)prop-1-yn-1-yl)-N-(4-(methoxymethyl)phenyl)-7-(1-methylcyclopropyl)-7H-pyrrolo[2,3-d]pyrimidine-5-carboxamide]	74
COCc1ccc(NC(=O)c2c(C#CCC3(O)CCOCC3)n(C3(C)CC3)c3ncnc(N)c23)cc1 [Example 143, 4-amino-6-(3-(4-hydroxytetrahydro-2H-pyran-4-yl)prop-1-yn-1-yl)-N-(4-(methoxymethyl)phenyl)-7-(1-methylcyclopropyl)-7H-pyrrolo[2,3-d]pyrimidine-5-carboxamide]	68
COCc1ccc(NC(=O)c2c(-c3ccc(CO)nc3)n(C3(C)CC3)c3ncnc(N)c23)cc1 [Example 179, 4-amino-6-(6-(hydroxymethyl)pyridin-3-yl)-N-(4-(methoxymethyl)phenyl)-7-(1-methylcyclopropyl)-7H-pyrrolo[2,3-d]pyrimidine-5-carboxamide]	85
COCc1ccc(NC(=O)c2c(-c3ccc(N4CCN(C)CC4)cc3)n(C3(C)CC3)c3ncnc(N)c23)cc1 [Example 171, 4-amino-N-(4-(methoxymethyl)phenyl)-7-(1-methylcyclopropyl)-6-(4-(4-methylpiperazin-1-yl)phenyl)-7H-pyrrolo[2,3-d]pyrimidine-5-carboxamide]	77
COCc1ccc(NC(=O)c2c(C#Cc3cn(C)nc3C)n(C3(C)CC3)c3ncnc(N)c23)cc1 [Example 181, 4-amino-6-((1,3-dimethyl-1H-pyrazol-4-yl)ethynyl)-N-(4-(methoxymethyl)phenyl)-7-(1-methylcyclopropyl)-7H-pyrrolo[2,3-d]pyrimidine-5-carboxamide]	62
COCc1ccc(NC(=O)c2c(C#CC3CCOCC3)n(C3(C)CC3)c3ncnc(N)c23)cc1 [Example 87, 4-amino-N-[4-(methoxymethyl)phenyl]-7-(1-methylcyclopropyl)-6-((tetrahydro-2H-pyran-4-yl)ethynyl)-7H-pyrrolo[2,3-d]pyrimidine-5-carboxamide]	63
COCc1ccc(NC(=O)c2cn(C(C)(C)C)c3ncnc(N)c23)cc1F [Example 30, 4-amino-7-(tert-butyl)-N-(3-fluoro-4-(methoxymethyl)phenyl)-7H-pyrrolo[2,3-d]pyrimidine-5-carboxamide]	54
COCc1ccc(NC(=O)c2c(C#CCC3CCOCC3)n(C3(C)CC3)c3ncnc(N)c23)cc1 [Example 152, 4-amino-N-(4-(methoxymethyl)phenyl)-7-(1-methylcyclopropyl)-6-(3-(tetrahydro-2H-pyran-4-yl)prop-1-yn-1-yl)-7H-pyrrolo[2,3-d]pyrimidine-5-carboxamide]	57
COCc1ccc(NC(=O)c2c(C#CC3(O)CCCC3)n(C3(C)CC3)c3ncnc(N)c23)cc1 [Example 131, 4-amino-6-((1-hydroxycyclopentyl)ethynyl)-N-(4-(methoxymethyl)phenyl)-7-(1-methylcyclopropyl)-7H-pyrrolo[2,3-d]pyrimidine-5-carboxamide]	55
COCCN(C)CC#Cc1c(C(=O)Nc2ccc(COC)cc2)c2c(N)ncnc2n1C1(C)CC1 [Example 197, 4-amino-6-(3-((2-methoxyethyl)(methyl)amino)prob-1-yn-1-yl)-N-(4-(methoxymethyl)phenyl)-7-(1-methylcyclopropyl)-7H-pyrrolo[2,3-d]pyrimidine-5-carboxamide]	52
COCc1ccc(NC(=O)c2c(C#Cc3c(C)noc3C)n(C3(C)CC3)c3ncnc(N)c23)cc1 [Example 184, 4-amino-6-((3,5-dimethylisoxazol-4-yl)ethynyl)-N-(4-(methoxymethyl)phenyl)-7-(1-methylcyclopropyl)-7H-pyrrolo[2,3-d]pyrimidine-5-carboxamide]	58
COCc1ccc(NC(=O)c2cn(C(C)(C)C(F)F)c3ncnc(N)c23)cc1 [Example 50, 4-amino-7-(1,1-difluoro-2-methylpropan-2-yl)-N-(4-(methoxymethyl)phenyl)-7H-pyrrolo[2,3-d]pyrimidine-5-carboxamide]	53
